One compound from paper PMC3269340, “Pharmacokinetics of memantine in rats and mice” (PLoS Currents, 2012) can be followed below.

A word on the IC50: it is the concentration needed to halve the response being measured. Broadly, the inhibition is how much of the control response was suppressed.

For assay [1], the target named is T1, human PEPT1 (Homo sapiens, UniProt P46059).
T1 sequence (P46059 1-708): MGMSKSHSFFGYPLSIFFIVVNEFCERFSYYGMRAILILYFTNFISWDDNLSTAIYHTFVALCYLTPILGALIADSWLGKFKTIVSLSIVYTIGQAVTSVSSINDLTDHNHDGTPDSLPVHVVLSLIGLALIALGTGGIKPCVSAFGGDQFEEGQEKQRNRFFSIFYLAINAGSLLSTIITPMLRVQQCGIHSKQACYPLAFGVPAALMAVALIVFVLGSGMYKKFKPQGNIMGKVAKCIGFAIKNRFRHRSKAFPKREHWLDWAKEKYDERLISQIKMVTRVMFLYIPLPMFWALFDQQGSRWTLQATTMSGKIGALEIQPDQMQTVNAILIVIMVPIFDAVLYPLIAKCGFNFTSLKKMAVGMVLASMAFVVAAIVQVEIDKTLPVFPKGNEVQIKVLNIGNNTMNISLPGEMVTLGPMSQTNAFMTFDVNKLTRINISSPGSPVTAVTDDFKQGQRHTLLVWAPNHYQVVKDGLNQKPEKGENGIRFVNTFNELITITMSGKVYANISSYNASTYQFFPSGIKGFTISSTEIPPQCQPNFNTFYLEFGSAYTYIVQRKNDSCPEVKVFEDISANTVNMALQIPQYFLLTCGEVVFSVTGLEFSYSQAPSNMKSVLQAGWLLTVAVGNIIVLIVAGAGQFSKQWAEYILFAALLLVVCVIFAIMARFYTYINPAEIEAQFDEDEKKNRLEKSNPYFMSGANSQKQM
In words: Indirect uptake transporter assay, PEPT1. Format: in vitro ADME. The source says: (§1) To determine whether memantine is an inhibitor of the human OATP2B1 (OATP-B), OCT1, OCT2, OAT3, PEPT1, PEPT2 uptake transporters. The standard uptake transporter assay is an indirect, inhibitory-type screening assay, performed with cold test article, which in this case was memantine. It provides information on any interaction (substrate or inhibitor) between selected uptake transporters and memantine that would affect the transport of the reporter compound. […] A radiolabeled reporter substrate is transported into the cells transfected with the selected human uptake transporter, and the inhibitory effect of memantine on the transport of this reporter substrate is measured. Values are presented on a relative scale; 100% defined as transport in the presence of the solvent and without memantine (no inhibition), and 0% defined as transport detected without transporter activity. IC50 is defined as the concentration required to inhibit the transport of the reporter substrate by 50%.
The uptake transporter assay was carried out under the conditions described in the table below, with either CHO cells or MDCKII cells stably expressing the respective uptake transporter.
Duplicate incubations of memantine (0 or DMSO control, 0.41, 1.2, 3.7, 11, 33, 100 and 300 µM) were conducted per concentration on transfected and in parental cells. A reference inhibitor (positive control, duplicate) was incubated in transfected cells.
CHO cells were cultured in a 1:1 mixture of Dubelcco’s Modified Eagle’s Medium (DMEM, Lonza, Allendale, NJ) and Ham's F-12 (F-12, Lonza, Allendale, NJ) and MDCKII cells in DMEM at 37°C in an atmosphere of 95:5 air:CO2. […]
(§2) After the experiment cells were rinsed with 2 x 100µl of Krebs-Henseleit buffer and lysed with 50 µl of 0.1M NaOH. ^3H-estrone-3-sulfate, ^14C-TEA, ^14C-metformin and ^3H-Gly-Sar transport was determined by total radioactivity by transferring an aliquot (35µl) from each well to a vial containing liquid scintillant for analysis.

The target in assay [2] is T2, human PEPT2 (Homo sapiens, UniProt Q16348).
T2 construct: expressed in transfected cells; host or cells: CHO cells
T2 sequence (Q16348 1-729): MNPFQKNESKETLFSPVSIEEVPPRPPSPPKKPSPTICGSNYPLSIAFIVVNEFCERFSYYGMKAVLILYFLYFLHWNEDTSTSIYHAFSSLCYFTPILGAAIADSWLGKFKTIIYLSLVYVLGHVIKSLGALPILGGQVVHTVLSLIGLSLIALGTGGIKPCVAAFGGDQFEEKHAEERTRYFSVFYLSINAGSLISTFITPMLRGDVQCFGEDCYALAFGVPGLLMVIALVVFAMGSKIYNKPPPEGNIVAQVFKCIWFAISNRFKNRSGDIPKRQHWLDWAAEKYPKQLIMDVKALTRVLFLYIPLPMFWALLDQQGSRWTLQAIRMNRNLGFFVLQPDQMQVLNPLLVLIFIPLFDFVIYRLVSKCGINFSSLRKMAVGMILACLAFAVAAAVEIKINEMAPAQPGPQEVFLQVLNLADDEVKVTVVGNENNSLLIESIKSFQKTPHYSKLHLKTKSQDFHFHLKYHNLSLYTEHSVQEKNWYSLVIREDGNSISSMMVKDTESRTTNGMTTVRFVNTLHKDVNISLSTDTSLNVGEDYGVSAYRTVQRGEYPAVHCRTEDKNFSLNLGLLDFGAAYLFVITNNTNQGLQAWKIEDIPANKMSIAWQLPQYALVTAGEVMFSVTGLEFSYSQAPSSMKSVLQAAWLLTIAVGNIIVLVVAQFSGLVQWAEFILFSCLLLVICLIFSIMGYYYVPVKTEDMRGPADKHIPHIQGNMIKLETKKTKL
In words: Indirect uptake transporter assay, PEPT2. Format: in vitro ADME.
Excerpt: as §1, with “50%. […]” for “50%.”
as §2

Turning to `CC12CC3CC(C)(C1)CC(N)(C3)C2` [memantine], the “Maximal Inhibition” value in assay [1] (PEPT1, up to 300 µM) is reported as ~62%. For the same compound, the IC50 in assay [1] (PEPT1-mediated glycylsarcosine transport) was 280 µM; in assay [1] (PEPT1, probe printed in Table 5: E3S (1 μM), methods and text: Gly-Sar), 281 µM; in assay [2] (PEPT2, probe printed in Table 5: E3S (0.3µM), methods and text: Gly-Sar) it was “ND (Not Determined (< 50% inhibition))”. For the same compound, the inhibition at 300 µM in assay [2] (at 300 µM, read-out: inhibition of PEPT2-mediated glycylsarcosine transport) was found to be 22%.
